Non-standard residues stand in square brackets, D forms with d. Residues, ends and D or L forms follow the SMILES beside them. No end group written: not given here. *: point of attachment. Nle = CCCC[C@H](N)C(=O)O; Cbz = O=C(OCc1ccccc1)*
Assays:
β-catenin [1] = target: T1, β-catenin (Cricetulus griseus, UniProt G3H996); assay: β-catenin level in CHO cells by Western blot; type: cell-based; settings: CHO cells transiently transfected with GFP-cadherin constructs, FIG. 7B
T1 construct: resulting from the stabilization of the endogenous β-catenin by the transfected cadherin derivatives; endogenous in cells; host or cells: CHO cells, stably or transiently transfected with cadherin derivatives only
T1 sequence (G3H996 1-781): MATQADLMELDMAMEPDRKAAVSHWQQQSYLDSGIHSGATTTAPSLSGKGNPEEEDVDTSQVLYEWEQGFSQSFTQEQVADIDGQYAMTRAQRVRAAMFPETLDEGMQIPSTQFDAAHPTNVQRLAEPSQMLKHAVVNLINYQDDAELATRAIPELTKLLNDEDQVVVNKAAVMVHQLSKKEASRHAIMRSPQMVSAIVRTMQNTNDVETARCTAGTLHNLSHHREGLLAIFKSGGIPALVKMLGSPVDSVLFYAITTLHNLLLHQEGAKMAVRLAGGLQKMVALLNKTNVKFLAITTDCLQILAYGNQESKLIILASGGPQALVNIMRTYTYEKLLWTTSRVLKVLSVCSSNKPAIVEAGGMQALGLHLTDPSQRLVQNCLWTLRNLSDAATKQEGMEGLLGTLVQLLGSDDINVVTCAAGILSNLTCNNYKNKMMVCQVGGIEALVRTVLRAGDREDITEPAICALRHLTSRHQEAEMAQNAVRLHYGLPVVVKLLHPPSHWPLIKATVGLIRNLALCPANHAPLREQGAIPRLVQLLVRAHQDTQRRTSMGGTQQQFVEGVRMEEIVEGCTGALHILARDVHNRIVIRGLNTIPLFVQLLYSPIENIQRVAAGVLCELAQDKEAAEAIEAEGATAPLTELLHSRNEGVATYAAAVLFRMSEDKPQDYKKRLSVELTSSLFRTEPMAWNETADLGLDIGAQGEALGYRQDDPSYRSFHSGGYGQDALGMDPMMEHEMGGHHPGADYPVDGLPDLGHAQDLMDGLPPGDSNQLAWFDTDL
Protocol: (§1) Cell culture and transfections: CHO and SW480 human colon carcinoma cells were cultured in Dulbecco's modified Eagle's medium containing 10% fetal calf serum in an 8% CO2 incubator at 37° C. Transfections were performed using Lipofectamine (Gibco, BRL, USA) according to the manufacturer's instructions. Stably transfected CHO clones were generated by co-transfection with a plasmid encoding the puromycin resistance gene. Two days after transfection, cells were replated in the presence of 10 μg/ml puromycin (Sigma, Holon, Israel). Stable clones were isolated 2 weeks later and tested for the expression of the transgene by Western blot analysis.
Immunoblotting and immunoprecipitation: The following antibodies were used: polyclonal pan-cadherin or monoclonal anti cadherin (CH-19) and polyclonal anti β-catenin antibodies were from Sigma (Holon, Israel). Monoclonal anti β-catenin, 5H10 (from M. Wheelock), anti IL2Rα (from UBI), anti flag (M2, from IBI), anti HA (clone 12CA5, from Boehringer Mannheim, Germany), anti GFP (polyclonal, from Clontech, Palo Alto, Calif.), anti LEF-1 (polyclonal, kindly provided by Dr. R. Grosschedl). Secondary antibodies for Western blotting were goat anti rabbit or anti mouse conjugated to HRP (Amersham, Buckinghampshire, UK), and for immunofluorescence analysis the secondary antibodies were FITC-goat anti mouse (Cappel, USA) or rhodamine-anti rabbit antibodies (from Jackson Immuno-Research, West Grove, Pa.). Cells were harvested in Laemmli's sample buffer and equal amounts of total cell protein from the different clones, or from transient transfections, were separated by SDS-PAGE, electrotransferred to nitrocellulose and incubated with the different antibodies. For immunoprecipitation, cells were harvested in IP buffer (20 mM Tris pH 8.0, 1% Triton X-100, 140 mM NaCl, 10% glycerol, 1 mM EGTA, 1.5 mM MgCl2, 1 mM DTT, 1 mM sodium vanadate, and 50 μg/ml PMSF). Equal amounts (500-700 μg) of cell protein were incubated with 1 μl of the relevant antibody for 2 hours at 4° C., followed by incubation with 20 μl of protein A+G/agarose beads (Santa Cruz Biotechnologies, Santa Cruz, Calif.) for an additional 2 hours at 4° C. The agarose beads were washed with 20 mM Tris pH 8.0, 150 mM NaCl, and 0.5% NP-40, and the immune complexes recovered by boiling in Laemmli's sample buffer and resolved by SDS-PAGE.

[2] = tested on: β-catenin-mediated transactivation; assay: TOPFLASH luciferase transactivation in SW480 cells (Example 1); type: cell-based, human; settings: SW480 cells, GFP-fused cadherin tail constructs, FIG. 7C
Protocol: as §1
Transactivation assays: CHO cells were transfected with TOPFLASH or FOPFLASH vectors (van de Wetering et al., 1997, ibid) and with pCDNA3 coding for β-galactosidase to normalize for transfection efficiency. The transfection mixture also contained either β-catenin, LEF-1 or cadherin derivatives in different combinations, as indicated. SW480 cells were transfected with TOPFLASH and cadherin derivatives. After 48 hours, cells were harvested and tested for luciferase and β-galactosidase activities as follows: Cells were washed 5 times with PBS, resuspended in PM-2 buffer (33 mM NaH2PO4, 66 mM Na2HPO4, 0.1 mM MnCl2, 2 mM MgSO4, 40 mM β-mercaptoethanol) and lysed by 5 cycles of freezing and thawing. Aliquots containing equal amounts of protein were incubated with O-Nitrophenyl-β-D-galactopyranoside (ONPG) at 37° C. until a yellow color appeared. The reactions were stopped with 1 M Na2CO3 and the absorbance at 420 nm was determined. Identical aliquots were tested for luciferase activity using luciferine buffer (100 mM Tris-O-Acetate pH 7.8, 10 mM Mg-O-Acetate, 1 mM EDTA, 74 μM luciferine (Boehringer Mannheim, Germany) and 2.22 mM ATP, pH 7.0). The luciferase reaction was monitored by a TD-20e luminometer (Turner, USA) and normalized for the β-galactosidase activity.
Distribution of N-cadherin derivatives and the effect on β-catenin transactivation in SW480 cells: SW480 colon carcinoma cells express mutant APC, low levels of E-cadherin and relatively high levels of free β-catenin. These cells also display very significant β-catenin-mediated transcription after transfection with TOPFLASH (FIG. 6A, lane 1). To determine the effect of cadherin on this β-catenin-driven transactivation, each of the three N-cadherin derivatives was transfected together with TOPFLASH into SW480 cells and luciferase activity determined. […] The most efficient inhibitor of this transactivation was the cadherin tail construct (FIG. 6A, lane 4), which inhibited the reporter gene by more than 85%. Full-length N-cadherin and the IL2R/N-cadherin chimera decreased the activity of the reporter by about 70% and 50%, respectively.

β-catenin [3] = assay: β-catenin Western blot in Balb/C 3T3 cells treated with ubiquitin-proteasome inhibitors; type: cell-based, mouse; settings: treated 4 hours, FIG. 17A
Protocol: (§2) Lactacystin A (dissolved in water at 0.4 mg/ml was used at a final concentration of 4 μg/ml) and MG-132 (used at 10 or 20 μM) were purchased from Calbiochem (La Jolla, Calif.).
Polyacrylamide Gel Electrophoresis and Immunoblotting: Equal amounts of total cell protein were separated by SDS PAGE, electro-transferred to nitrocellulose and incubated with monoclonal antibodies. The antigens were visualized by the enhanced chemiluminescence (Amersham, Buckinghampshire, U.K). In some experiments, cells were fractionated into Triton X-100-soluble and -insoluble fractions. Briefly, cells cultured on 35 mm dishes were incubated in 0.5 ml buffer containing 50 mM MES, pH 6.8, 2.5 mM EGTA, 5 mM MgCl2 and 0.5% Triton-X-100, at room temperature for 3 minutes. The Triton X-100-soluble fraction was removed, and the insoluble fraction was scraped into 0.5 ml of the same buffer. Equal volumes of the two fractions were analyzed by SDS PAGE followed by immunoblotting with the various antibodies.

HT1080 cells = assay: Butyrate induction in HT1080 cells stably expressing ΔN57 β-catenin; type: cell-based, human
Protocol: Cell Culture and Transfections: Canine kidney epithelial cells MDCK, human fibrosarcoma HT1080, 293-T human embryonic kidney cells, Balb/C mouse 3T3 and human colon carcinoma SW480 cell lines were cultured in Dulbecco's modified Eagle's medium supplemented with 10% calf serum (Gibco, Grand Island, N.Y.) at 37° C. in the presence of 7% CO2. The human renal carcinoma cell line KTCTL60 was grown in RPMI medium and 10% calf serum. Cells were transiently transfected with the cDNA constructs described below, using Ca^2+-phosphate or lipofectamine (Gibco) and the expression of the transgene was assessed between 24 and 48 hours after transfection. […]
Immunofluorescence Microscopy: Cells cultured on glass coverslips were fixed with 3.7% paraformaldehyde in PBS and permeabilized with 0.5% Triton X-100. […] Images of the fluorescent cells were recorded with a cooled, scientific grade CCD camera (Photometrics, Tucson, Ariz.). Integrated fluorescent intensities in transfected and nontransfected cells were determined, after the background was subtracted.
(§3) Polyacrylamide Gel Electrophoresis and Immunoblotting: Equal amounts of total cell protein were separated by SDS PAGE, electro-transferred to nitrocellulose and incubated with monoclonal antibodies. […] Equal volumes of the two fractions were analyzed by SDS PAGE followed by immunoblotting with the various antibodies.

plakoglobin = assay: Plakoglobin Western blot in KTCTL60-PG cells treated with proteasome inhibitor; type: cell-based, human; settings: 10 and 20 μM, FIG. 17B
Protocol: (§4) Cell Culture and Transfections: Canine kidney epithelial cells MDCK, human fibrosarcoma HT1080, 293-T human embryonic kidney cells, Balb/C mouse 3T3 and human colon carcinoma SW480 cell lines were cultured in Dulbecco's modified Eagle's medium supplemented with 10% calf serum (Gibco, Grand Island, N.Y.) at 37° C. in the presence of 7% CO2. The human renal carcinoma cell line KTCTL60 was grown in RPMI medium and 10% calf serum. Cells were transiently transfected with the cDNA constructs described below, using Ca^2+-phosphate or lipofectamine (Gibco) and the expression of the transgene was assessed between 24 and 48 hours after transfection. In some experiments, the expression of the stably transfected NH2 terminus-deleted β-catenin (Δ57) was enhanced in HT1080 cells by overnight treatment with 2 mM sodium butyrate.
as §2, §3

β-catenin [4] = assay: β-catenin Western blot in KTCTL60 cells treated with proteasome inhibitor; type: cell-based, human; settings: 10 and 20 μM, FIG. 17B
Protocol: as §4, §2, §3

Molecule | stabilization of β-catenin against degradation (β-catenin [1]) | inhibition of luciferase activity (LEF-1-driven transactivation) [2] | effect on β-catenin (Western blot) (β-catenin [3]) | also measured
E72: C-terminal 72 amino acids of E-cadherin (813-884) fused to GFP | could also stabilize β-catenin | 60% | – | –
CCCC[C@@H](C=O)NC(=O)[C@H](CC(C)C)NC(=O)[C@H](CC(C)C)NC(C)=O [ALLN, N-Acetyl-Leu-Leu-Norleucinal] (Ac-Leu-Leu-[Nle]-aldehyde) | – | – | appearance of higher molecular weight β-catenin forms | –
N71: C-terminal 71 amino acids of N-cadherin (842-912) fused to GFP | could also stabilize β-catenin | 70% | – | –
E30: E-cadherin tail fragment, amino acids 833-862, fused to GFP | ineffective in stabilizing β-catenin against degradation | did not affect β-catenin-mediated transactivation | – | –
CC(=O)N[C@@H](CSC(=O)[C@]1([C@@H](O)C(C)C)NC(=O)[C@H](C)[C@@H]1O)C(=O)O [Lactacystin] | – | – | appearance of higher molecular weight β-catenin forms | –
CCCC(=O)[O-].[Na+] [butyrate, sodium butyrate] | – | – | – | β-catenin localization (HT1080 cells; butyrate-treated, FIG. 14D): dramatic translocation of β-catenin into the nucleus; increase in expression of the transgene (western blot) (HT1080 cells; overnight 2 mM sodium butyrate, data not shown): about 2 fold
CC(C)C[C@@H](C=O)NC(=O)[C@H](CC(C)C)NC(=O)[C@H](CC(C)C)NC(=O)OCc1ccccc1 [MG-132] (Cbz-Leu-Leu-Leu-aldehyde) | – | – | appearance of higher molecular weight β-catenin forms | effect on plakoglobin level (plakoglobin): moderate increase in plakoglobin; effect on β-catenin content (β-catenin [4]): dramatic elevation in β-catenin content
N30: N-cadherin tail fragment, amino acids 862-891, fused to GFP (LVFDYEGSGSTAGSLSSLNSSSSGGEQDYD; also: fused to GFP) | ineffective in stabilizing β-catenin against degradation | did not affect β-catenin-mediated transactivation | – | –
